Test results: ChEMBL document CHEMBL1671673, “In vitro activity of colistin (polymyxin E) against 3,480 isolates of gram-negative bacilli obtained from patients in Canadian hospitals in the CANWARD study, 2007-2008” (Antimicrob Agents Chemother, 2009)

Key:
Assay type in all cases: functional, organism-based
Pseudomonas aeruginosa [1] = experiment: Antibacterial activity against Gentamicin-resistant Pseudomonas aeruginosa assessed as susceptible isolates at minimum inhibitory concentration of >16 ug/ml by CLSI broth microdilution method; set-up: scale not given: the % may be the effect or the level left
Pseudomonas aeruginosa [2] = experiment: Antibacterial activity against Levofloxacin-resistant Pseudomonas aeruginosa assessed as susceptible isolates at minimum inhibitory concentration of 16 ug/ml by CLSI broth microdilution method; set-up: scale not given: the % may be the effect or the level left
Pseudomonas aeruginosa [3] = experiment: Antibacterial activity against Levofloxacin-resistant Pseudomonas aeruginosa assessed as susceptible isolates at minimum inhibitory concentration of >16 ug/ml by CLSI broth microdilution method; set-up: scale not given: the % may be the effect or the level left
Pseudomonas aeruginosa [4] = experiment: Antibacterial activity against MDR3 Pseudomonas aeruginosa assessed as susceptible isolates at minimum inhibitory concentration of 0.5 ug/ml by CLSI broth microdilution method; set-up: scale not given: the % may be the effect or the level left
Pseudomonas aeruginosa [5] = experiment: Antibacterial activity against MDR3 Pseudomonas aeruginosa assessed as susceptible isolates at minimum inhibitory concentration of 2 ug/ml by CLSI broth microdilution method; set-up: scale not given: the % may be the effect or the level left
Pseudomonas aeruginosa [6] = experiment: Antibacterial activity against MDR4 Pseudomonas aeruginosa assessed as susceptible isolates at minimum inhibitory concentration of 2 ug/ml by CLSI broth microdilution method; set-up: scale not given: the % may be the effect or the level left
Pseudomonas aeruginosa [7] = experiment: Antibacterial activity against Pseudomonas aeruginosa assessed as resistant isolates at >=8 ug/ml by CLSI broth microdilution method
Serratia marcescens [8] = experiment: Antibacterial activity against Serratia marcescens assessed as susceptible isolates at minimum inhibitory concentration of 0.5 ug/ml by CLSI broth microdilution method; set-up: scale not given: the % may be the effect or the level left
Serratia marcescens [9] = experiment: Antibacterial activity against Serratia marcescens assessed as susceptible isolates at minimum inhibitory concentration of 0.12 ug/ml by CLSI broth microdilution method; set-up: scale not given: the % may be the effect or the level left
Enterobacter cloacae [10] = experiment: Antibacterial activity against Enterobacter cloacae assessed as susceptible isolates at minimum inhibitory concentration of >16 ug/ml by CLSI broth microdilution method; set-up: scale not given: the % may be the effect or the level left
Enterobacter cloacae [11] = experiment: Antibacterial activity against Enterobacter cloacae assessed as susceptible isolates at minimum inhibitory concentration of 8 ug/ml by CLSI broth microdilution method; set-up: scale not given: the % may be the effect or the level left
Enterobacter cloacae [12] = experiment: Antibacterial activity against Enterobacter cloacae assessed as susceptible isolates at minimum inhibitory concentration of 4 ug/ml by CLSI broth microdilution method; set-up: scale not given: the % may be the effect or the level left
Klebsiella pneumoniae = experiment: Antibacterial activity against ESBL-producing Klebsiella pneumoniae assessed as susceptible isolates at minimum inhibitory concentration of 2 ug/ml by CLSI broth microdilution method; set-up: scale not given: the % may be the effect or the level left
Pseudomonas aeruginosa [13] = experiment: Antibacterial activity against Pseudomonas aeruginosa assessed as susceptible isolates at minimum inhibitory concentration of >16 ug/ml by CLSI broth microdilution method; set-up: scale not given: the % may be the effect or the level left
Pseudomonas aeruginosa [14] = experiment: Antibacterial activity against Pseudomonas aeruginosa assessed as susceptible isolates at minimum inhibitory concentration of 16 ug/ml by CLSI broth microdilution method; set-up: scale not given: the % may be the effect or the level left
Pseudomonas aeruginosa [15] = experiment: Antibacterial activity against Pseudomonas aeruginosa assessed as susceptible isolates at minimum inhibitory concentration of 8 ug/ml by CLSI broth microdilution method; set-up: scale not given: the % may be the effect or the level left
Escherichia coli [16] = experiment: Antibacterial activity against ESBL-producing Escherichia coli assessed as susceptible isolates at minimum inhibitory concentration of 16 ug/ml by CLSI broth microdilution method; set-up: scale not given: the % may be the effect or the level left
Escherichia coli [17] = experiment: Antibacterial activity against ESBL-producing Escherichia coli assessed as susceptible isolates at minimum inhibitory concentration of 8 ug/ml by CLSI broth microdilution method; set-up: scale not given: the % may be the effect or the level left
Escherichia coli [18] = experiment: Antibacterial activity against ESBL-producing Escherichia coli assessed as susceptible isolates at minimum inhibitory concentration of 4 ug/ml by CLSI broth microdilution method; set-up: scale not given: the % may be the effect or the level left
Klebsiella oxytoca [19] = experiment: Antibacterial activity against Klebsiella oxytoca assessed as susceptible isolates at minimum inhibitory concentration of 16 ug/ml by CLSI broth microdilution method; set-up: scale not given: the % may be the effect or the level left
Klebsiella oxytoca [20] = experiment: Antibacterial activity against Klebsiella oxytoca assessed as susceptible isolates at minimum inhibitory concentration of >16 ug/ml by CLSI broth microdilution method; set-up: scale not given: the % may be the effect or the level left
[21] = system: Stenotrophomonas maltophilia; experiment: Antibacterial activity against Stenotrophomonas maltophilia assessed as susceptible isolates at minimum inhibitory concentration of 0.5 ug/ml by CLSI broth microdilution method; set-up: scale not given: the % may be the effect or the level left
[22] = system: Stenotrophomonas maltophilia; experiment: Antibacterial activity against Stenotrophomonas maltophilia assessed as susceptible isolates at minimum inhibitory concentration of 4 ug/ml by CLSI broth microdilution method; set-up: scale not given: the % may be the effect or the level left
Klebsiella aerogenes [23] = experiment: Antibacterial activity against Enterobacter aerogenes assessed as susceptible isolates at minimum inhibitory concentration of <=0.06 ug/ml by CLSI broth microdilution method; set-up: scale not given: the % may be the effect or the level left
Klebsiella aerogenes [24] = experiment: Antibacterial activity against Enterobacter aerogenes assessed as susceptible isolates at minimum inhibitory concentration of 0.25 ug/ml by CLSI broth microdilution method; set-up: scale not given: the % may be the effect or the level left
Klebsiella aerogenes [25] = experiment: Antibacterial activity against Enterobacter aerogenes assessed as susceptible isolates at minimum inhibitory concentration of 0.5 ug/ml by CLSI broth microdilution method; set-up: scale not given: the % may be the effect or the level left
Klebsiella aerogenes [26] = experiment: Antibacterial activity against Enterobacter aerogenes assessed as susceptible isolates at minimum inhibitory concentration of 1 ug/ml by CLSI broth microdilution method; set-up: scale not given: the % may be the effect or the level left
Acinetobacter baumannii = experiment: Antibacterial activity against Acinetobacter baumannii assessed as susceptible isolates at minimum inhibitory concentration of 4 ug/ml by CLSI broth microdilution method; set-up: scale not given: the % may be the effect or the level left
Pseudomonas aeruginosa [27] = experiment: Antibacterial activity against Amikacin-resistant Pseudomonas aeruginosa assessed as susceptible isolates at minimum inhibitory concentration of 1 ug/ml by CLSI broth microdilution method; set-up: scale not given: the % may be the effect or the level left
Pseudomonas aeruginosa [28] = experiment: Antibacterial activity against Amikacin-resistant Pseudomonas aeruginosa assessed as susceptible isolates at minimum inhibitory concentration of >16 ug/ml by CLSI broth microdilution method; set-up: scale not given: the % may be the effect or the level left
Pseudomonas aeruginosa [29] = experiment: Antibacterial activity against Cefepime-resistant Pseudomonas aeruginosa assessed as susceptible isolates at minimum inhibitory concentration of 4 ug/ml by CLSI broth microdilution method; set-up: scale not given: the % may be the effect or the level left
Pseudomonas aeruginosa [30] = experiment: Antibacterial activity against Ciprofloxacin-resistant Pseudomonas aeruginosa assessed as susceptible isolates at minimum inhibitory concentration of 1 ug/ml by CLSI broth microdilution method; set-up: scale not given: the % may be the effect or the level left
Pseudomonas aeruginosa [31] = experiment: Antibacterial activity against Ciprofloxacin-resistant Pseudomonas aeruginosa assessed as susceptible isolates at minimum inhibitory concentration of >16 ug/ml by CLSI broth microdilution method; set-up: scale not given: the % may be the effect or the level left
Pseudomonas aeruginosa [32] = experiment: Antibacterial activity against Gentamicin-resistant Pseudomonas aeruginosa assessed as susceptible isolates at minimum inhibitory concentration of 0.5 ug/ml by CLSI broth microdilution method; set-up: scale not given: the % may be the effect or the level left
Pseudomonas aeruginosa [33] = experiment: Antibacterial activity against Gentamicin-resistant Pseudomonas aeruginosa assessed as susceptible isolates at minimum inhibitory concentration of 1 ug/ml by CLSI broth microdilution method; set-up: scale not given: the % may be the effect or the level left
Pseudomonas aeruginosa [34] = experiment: Antibacterial activity against Gentamicin-resistant Pseudomonas aeruginosa assessed as susceptible isolates at minimum inhibitory concentration of 2 ug/ml by CLSI broth microdilution method; set-up: scale not given: the % may be the effect or the level left
Klebsiella oxytoca [35] = experiment: Antibacterial activity against Klebsiella oxytoca assessed as susceptible isolates at minimum inhibitory concentration of 4 ug/ml by CLSI broth microdilution method; set-up: scale not given: the % may be the effect or the level left
Klebsiella oxytoca [36] = experiment: Antibacterial activity against Klebsiella oxytoca assessed as susceptible isolates at minimum inhibitory concentration of 2 ug/ml by CLSI broth microdilution method; set-up: scale not given: the % may be the effect or the level left
Klebsiella oxytoca [37] = experiment: Antibacterial activity against Klebsiella oxytoca assessed as susceptible isolates at minimum inhibitory concentration of 0.25 ug/ml by CLSI broth microdilution method; set-up: scale not given: the % may be the effect or the level left
Serratia marcescens [38] = experiment: Antibacterial activity against Serratia marcescens assessed as susceptible isolates at minimum inhibitory concentration of >16 ug/ml by CLSI broth microdilution method; set-up: scale not given: the % may be the effect or the level left

Sequence COLISTIN has an Activity (Pseudomonas aeruginosa [1]) of 100%, an Activity (Pseudomonas aeruginosa [2]) of 98.2% and an Activity (Pseudomonas aeruginosa [3]) of 100%. It also gave an Activity (Pseudomonas aeruginosa [4]) of 4%, an Activity (Pseudomonas aeruginosa [5]) of 100% and an Activity (Pseudomonas aeruginosa [6]) of 100%. The Activity (Pseudomonas aeruginosa [7]) was 1.1%, the Activity (Serratia marcescens [8]) was 0% and the Activity (Serratia marcescens [9]) was 0%. For the same sequence, the Activity (Enterobacter cloacae [10]) was 100%, the Activity (Enterobacter cloacae [11]) was 85.5% and the Activity (Enterobacter cloacae [12]) was 84.9%. It also gave an Activity (Klebsiella pneumoniae) of 97.1%, an Activity (Pseudomonas aeruginosa [13]) of 100% and an Activity (Pseudomonas aeruginosa [14]) of 99.1%. The Activity (Pseudomonas aeruginosa [15]) was 99.1%, the Activity (Escherichia coli [16]) was 99.7% and the Activity (Escherichia coli [17]) was 99.5%. The Activity (Escherichia coli [18]) was 99.5%, the Activity (Klebsiella oxytoca [19]) was 98.1% and the Activity (Klebsiella oxytoca [20]) was 100%. It also gave an Activity [21] of 4.8%, an Activity [22] of 33.7% and an Activity (Klebsiella aerogenes [23]) of 0%. It also gave an Activity (Klebsiella aerogenes [24]) of 18.9%, an Activity (Klebsiella aerogenes [25]) of 73% and an Activity (Klebsiella aerogenes [26]) of 97.3%. The Activity (Acinetobacter baumannii) was 93.5%, the Activity (Pseudomonas aeruginosa [27]) was 42.1% and the Activity (Pseudomonas aeruginosa [28]) was 100%. The Activity (Pseudomonas aeruginosa [29]) was 100%, the Activity (Pseudomonas aeruginosa [30]) was 31.3% and the Activity (Pseudomonas aeruginosa [31]) was 100%. It also gave an Activity (Pseudomonas aeruginosa [32]) of 3.8%, an Activity (Pseudomonas aeruginosa [33]) of 35.6% and an Activity (Pseudomonas aeruginosa [34]) of 99%. The Activity (Klebsiella oxytoca [35]) was 97.2%, the Activity (Klebsiella oxytoca [36]) was 95.4% and the Activity (Klebsiella oxytoca [37]) was 18.5%. The Activity (Serratia marcescens [38]) was 100%.
